According to the Kinase Knowledgebase extract (Sharma et al. 2016):

molecular target: MAPK14 (human) (UniProt Q16539); assay: Inhibition of MAPK14 Kinase Activity; conditions: not given
Sequence (Q16539 whole entry, looked up): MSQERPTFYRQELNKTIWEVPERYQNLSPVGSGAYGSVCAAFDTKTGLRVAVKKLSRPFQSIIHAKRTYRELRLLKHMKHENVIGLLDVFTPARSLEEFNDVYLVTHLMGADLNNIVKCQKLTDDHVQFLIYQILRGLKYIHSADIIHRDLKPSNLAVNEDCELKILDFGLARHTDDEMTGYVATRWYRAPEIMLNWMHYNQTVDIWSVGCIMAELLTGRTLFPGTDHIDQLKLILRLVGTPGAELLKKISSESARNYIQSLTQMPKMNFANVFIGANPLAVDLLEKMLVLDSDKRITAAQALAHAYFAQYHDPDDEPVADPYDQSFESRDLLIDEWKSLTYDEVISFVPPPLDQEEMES

Row | IC50 [µM] | Structure (SMILES)
1 | < 5 | CN(C)CCN(C)C(=O)CN1CCN(C(=O)c2cc(C(C)(C)C)sc2NC(=O)Nc2cccc(Cl)c2Cl)C(C)(C)C1=O
2 | < 5 | CN(C)CCN1CCN(C(=O)c2cc(C(C)(C)C)sc2NC(=O)Nc2cccnc2Cl)CCC1=O
3 | < 5 | CC(C)(C)c1cc(C(=O)N2CCNS(=O)(=O)CC2)c(NC(=O)Nc2ccc(F)c(Cl)c2Cl)s1
4 | < 5 | CN(C)CCN1CCN(C(=O)c2cc(C(C)(C)C)sc2NC(=O)Nc2c(Cl)cncc2Cl)C(C)(C)C1=O
5 | < 5 | CC(C)(C)c1cc(C(=O)N2CCNC(=O)C2(C)C)c(NC(=O)Nc2ccc3c(c2)OCO3)s1
6 | < 5 | CN(C)CCN1CCN(C(=O)c2cc(C(C)(C)C)sc2NC(=O)Nc2ccccc2C(F)(F)F)CCC1=O
7 | < 5 | CC(C)(C)c1cc(C(=O)N2CCNC(=O)C2(C)C)c(NC(=O)Nc2ccc(Cl)cc2Cl)s1
8 | < 5 | CN(C)CCNC(=O)CN1CCN(C(=O)c2sc(C(C)(C)C)cc2NC(=O)Nc2ccc(F)c(Cl)c2Cl)C(C)(C)C1=O
9 | < 5 | CN(C)CCNC(=O)CN1CCN(C(=O)c2nc(C(C)(C)C)sc2NC(=O)Nc2cccc(Cl)c2Cl)C(C)(C)C1=O
10 | < 5 | CN(C)CCN1CCN(C(=O)c2[nH]c(C(C)(C)C)cc2NC(=O)Nc2cccc(Cl)c2Cl)CCC1=O
11 | < 5 | Cc1noc(CN2CCN(C(=O)c3cc(C(C)(C)C)sc3NC(=O)Nc3cccc(Cl)c3Cl)C(C)(CC(N)=O)C2=O)n1 (configuration not stated)
12 | < 5 | COC(=O)CC1CC(=O)NCCN1C(=O)c1cc(C(C)(C)C)sc1NC(=O)Nc1cccc(Cl)c1Cl (configuration not stated)
13 | < 5 | CC(C)(C)c1cc(C(=O)N2CCNC(=O)C23CCC3)c(NC(=O)Nc2ccc(F)c(Cl)c2Cl)s1
14 | < 5 | Cc1cccc(NC(=O)Nc2sc(C(C)(C)C)cc2C(=O)N2CCN(CCN(C)C)C(=O)C2(C)C)c1Cl
15 | < 5 | CCC1(C)C(=O)N(CCN(C)C)CCN1C(=O)c1cc(C(C)(C)C)sc1NC(=O)Nc1ccc(F)cc1 (configuration not stated)
16 | < 5 | CC(C)(C)c1cc(C(=O)N2CCN(CC(=O)NCC(O)CO)C(=O)C2(C)C)c(NC(=O)Nc2cccc(Cl)c2Cl)s1 (configuration not stated)
17 | < 5 | CC(C)(C)c1nc(C(=O)N2CCNC(=O)C2(C)C)c(NC(=O)Nc2ccc(F)c(Cl)c2Cl)s1
18 | < 5 | CC(C)(C)c1cc(C(=O)N2CCNC(=O)C2(C)C)c(NC(=O)Nc2ccccc2Cl)s1
19 | < 5 | CN(C)CCNC(=O)CN1CCN(C(=O)c2sc(C(C)(C)C)cc2NC(=O)Nc2ccc(F)c(F)c2Cl)C(C)(C)C1=O
20 | < 5 | CC(C)(C)c1cc(C(=O)N2CCN(CCO)C(=O)C2(C)C)c(NC(=O)Nc2cccc(Cl)c2Cl)s1
21 | < 5 | CC(C)(C)c1cc(C(=O)N2CCNC(=O)CC2)c(NC(=O)Nc2ccc(OC(F)F)c(Cl)c2Cl)s1
22 | < 5 | CN(C)CCN1CCN(C(=O)c2sc(C(C)(C)C)cc2NC(=O)Nc2ccc(F)c(Cl)c2Cl)C(C)(C)C1=O

same assay, conditions: concentration not given here

Row | inhibition [%] | Structure (SMILES)
23 | 76 to 100 | CC(C)(C)c1cc(C(=O)N[C@@H]2CC(=O)NC2=O)c(NC(=O)Nc2ccc3ccccc3c2)s1
24 | 51 to 75 | CC(C)(C)c1cc(C(=O)N2CCNS(=O)(=O)CC2)c(NC(=O)NC(C)(C)c2ccccc2)s1
25 | 76 to 100 | CC(C)(C)c1cc(C(=O)N[C@@H]2CC(=O)NC2=O)c(NC(=O)Nc2ccc(Cl)cc2)s1
26 | 0 to 25 | CNC(=O)Nc1cc(C(C)(C)C)sc1C(=O)N1CCNC(=O)CC1
27 | 76 to 100 | CC(C)(C)c1cc(C(=O)N2CCC(=O)N(CC(N)=O)CC2)c(NC(=O)Nc2cccc(Cl)c2Cl)s1
